{"source": "patent US20180021278A1", "about": "“TREATMENT OR PREVENTION OF INFLAMMATION USING SERINE” (NESTEC S.A., priority 2015, published 2018)", "tested_on": "DSS-induced colitis", "experiment": "DSS-induced colitis in rats, histological total colitis score of colon sections (HE staining)", "assay_type": "in vivo", "settings": "male Sprague-Dawley rats, 5% DSS D0-D8 then 2% DSS D9-D28, control diet supplemented with 10 g/kg dry matter serine (DSS-SER) vs alanine-supplemented DSS-ALA group", "method": "The experimental procedures were carried out in accordance to European guidelines for the care and use of laboratory animals (Directive 2010/63/UE). 30 male Sprague-Dawley rats from Janvier (France), aged […] and weighting around 500/700g on the day of arrival, were used for this study. Animals were individually housed in cages. During the study, they had free access to food and drinking water or a dextran sulfate sodium (DSS, MW 36-44 kDa, ICN Biomedicals) solution ad libitum. Colitis was induced by treating rats with 5% DSS from D0 to D8 (acute colitis) and then 2% DSS from D9 to D28 (chronic colitis). DSS was dissolved in autoclaved water and provided ad libitum to the rats. Animals of the control group were given water not containing DSS from D0 to D28.\n3 groups of rats received the following treatment and diets: […]\nAt the end of the experiment (D28), animals were anesthetized using a combination of ketamine and xylasine and then euthanized by cervical dislocation. […] A score (ranging from 0 to 3) was finally determined for each criterion on each colon section and a total score was calculated.", "data": [{"compound": "N[C@@H](CO)C(=O)O", "note": "[Serine, serine]", "values": [{"measurement": "Total colitis score (sum of 0-3 scores for mucosal degeneration, mucosal regeneration and hyperplasia, acute and sub-acute inflammation)", "setting": "p<0.05", "value": "significantly lower"}, {"measurement": "Total colitis score (sum of 0-3 scores for mucosal degeneration, mucosal regeneration and hyperplasia, acute and sub-acute inflammation)", "setting": "p<0.05, listed as serine", "value": "reduced colitis"}]}]}
